# Key:
# [1] = tested on: Rpd3-regulated genes (URS-URA3, INO1, IME2, CAR1, SPO13, TRK2); assay: RT-qPCR of Rpd3-regulated genes in yeast; format: cell-based, S. cerevisiae; conditions: for derepression of URS-URA3 in deletion strains: rpd3Δ, sin3Δ, ume6Δ, sin3Δ/ume6Δ
# Description: After yeast cells reached OD600 nm ˜0.5 in 0.8-1 mL of YPD, they were grown for two more hours at room temperature before being centrifuged to remove supernatant and freezing pellets on dry ice. For compound treatments, yeast cells at OD600 nm˜0.5 in YPD were incubated at room temperature for two hours with DMSO (1-1.6%) or the desired compound (from 25 mM stock in 100% DMSO) in an 2 mL-tube for a final volume of 0.8 mL in YPD, before being centrifuged, washed and frozen as described above. Yeast cells were then harvested for RNA extraction using a RiboPure RNA Purification Kit (Invitrogen, cat #AM1926), which involves mechanical cell wall disruption, phenol extraction of the lysate, and RNA purification using glass fiber, and filter-based RNA purification columns. RNA concentration was measured for individually purified RNA samples using a NanoDrop spectrophotometer. A total of 1 μg RNA from each sample was used for reverse transcription following a published procedure [Choi, S. G. et al 2012].
# The RT-qPCR protocol used in this study was described elsewhere [Choi et al 2012]. Culture, RNA extraction, and compound treatments for neuroblastoma SK-N-BE(2)-C cells are described below. Approximately 1 μg RNA per sample was used for reverse transcription. Using a thermocycler, RNA was denatured in the presence of 0.2 μg 18 mer oligo-dT by heating the plate at 65° C. for 10 min. The plate was then immediately cooled down on ice to anneal oligo-dT on the poly-A tail of mRNA. A master mix of AffinityScript Multiple Temperature Reverses Transcriptase (Agilent, cat #600107) was prepared following the manufacturer's protocol, and mixed with RNA samples previously annealed with the oligo-dT. The plate was incubated at 42° C. for 2 h to generate cDNAs from mRNA templates. The reverse transcriptase was then denatured by heating the plate at 70° C. for 15 min. The resulting cDNA was diluted (1:20) in sterile, ultra pure water (ddH2O), and stored at −20° C. until used for qPCR. To measure gene expression, the diluted cDNA was mixed with 5 μL PowerUp SYBR Green master mix (Applied Biosystems, cat #A25743), and the mix of primers (forward+reverse, see FIG. 31; 0.3 μM final concentration) for a total volume of 10 μL. Two technical replicates were generated per cDNA sample in the 384-well PCR plate (Applied Biosystems, cat #4343370). The plate was tightly sealed with optical adhesive film (Applied Biosystems, cat #4311971). Quantitative PCR was conducted with a QuantStudio real-time PCR system from Applied Biosystems, with the following settings: 50° C./2 min, 95° C./10 min, 96° C./15 s/40 cycles, and 60° C./30 s. Dissociation curves were checked for each PCR product, to assess the specificity of the PCR amplicons.
# Expression of gene X normalized to the control gene expression=k*1.96^(Ct^Control^−Ct^Test^) • where k is an arbitrary multiplier (k=1000 in this study), 1.96 is the PCR amplification efficiency constant, Ct is the cycle threshold, CtControl is the Ct value for the housekeeping gene used as control (UBC6 in yeast [Teste et al 2009]; RPS11 in human cells [Zhan et al 2014], and CtTest is the Ct value for the tested gene. Replicates corresponding to DMSO treatments or WT yeast cells were averaged and other data points normalized using those DMSO or WT values as references (i.e. expression relative to DMSO or WT). TAF10 in yeast or SNRPD3 in human cells were used as genes not known for being regulated by an HDAC complex (HDAC-unrelated genes).
# [2] = tested on: human neuroblastoma SK-N-BE(2)-C cells; assay: Single-cell RNA-seq in neuroblastoma cells; format: cell-based; conditions: 1 μM TSA, 25 μM E6R, 16 h
# Description: Cells were grown in DMEM media supplemented with 10% FBS+PS in a 5% CO2 incubator at 37° C. […] Cells were harvested by incubating them in TryplE for 10 min. Cells were spun down for 5 min at 300 g, and the supernatant was removed. Cells were counted via hemocytometer to 20,000 cells and resuspended in 200 μL of media.
# High-throughput scRNA-seq was performed using the Seq-Well S^3 platform as previously described [Gierahn et al 2017, Hughes et al 2020]. Briefly, 20,000 cells were applied to the surface of each Seq-Well array which had been preloaded with uniquely barcoded poly(dT) mRNA capture beads (Chemgenes). Following cell loading, arrays were washed with RPMI and then sealed with a polycarbonate membrane and placed in a 37° C. incubator for 30 min. After membrane sealing, the arrays were submerged in a lysis buffer (5 M guanidine thiocyanate, 10 mM EDTA, 0.1% β-mercaptoethanol, 0.1% Sarkosyl) for 20 min, and subsequently incubated in a 2 M NaCl hybridization buffer for 40 min to promote hybridization of the mRNA to the bead-bound capture oligos. Next, the beads were removed from the arrays, and they were resuspended in a master mix for reverse transcription containing Maxima H Minus Reverse Transcriptase and buffer, dNTPs, RNase inhibitor, a template switch oligonucleotide, and PEG for 30 min at room temperature, and overnight at 52° C. with end-over-end rotation. […] Then, the eluted products were quantified using a Qubit. cDNA libraries were then created using Illumina Nextera XT DNA Library Preparation Kit. Library cleanup was performed using SPRI purification as described above and library concentration and size distribution was determined using a Qubit fluorometer and Agilent TapeStation. Libraries for each sample were sequenced on a NextSeq 500 and a Nextseq 2000 with the following read structures: read 1: 21 bp; read 2: 50 bp; and index 1: 8 bp, and read 1: 26 bp; read 2: 50 bp; and index 1: 8 bp respectively. For each library 21 bases were sequenced in read 1, containing the cell barcode (12 bp) information and a unique molecular identifier (UMII, 8 bp), whereas 50 bases were obtained for the read 2 sequence. After sequencing, reads were demultiplexed using Illumina bcl2fastq (v2.20.0.422) and the resulting FASTQs were concatenated and aligned to the human “GRCh38-2020-A” reference genome using StarSolo alignment pipeline (v2.7.9a) on Terra.
# Subsequently, low quality cells were filtered out, including cells with fewer than 200 unique genes, greater than 9,000 unique genes, and greater than 40% mitochondrial reads, resulting in 46,751 cells and 25,468 genes. […] Differentially expressed genes were determined using the FindMarkers function on Seurat with “test.use=MAST” and default parameters. […]
Structure (SMILES),"increase of INO1 expression ([1]; 250 μM, relative to DMSO) [fold]",derepression of URS-URA3 in deletion strains ([1]; 250 μM),"genes also downregulated by scRNA-seq, among 22 downregulated in bulk RNA-seq [2] [genes]","genes also upregulated in scRNA-seq, among 65 upregulated in bulk RNA-seq [2] [genes]",expression at URS-URA3 compared to E6S ([1]; different doses),effect on CAR1 and SPO13 expression ([1]; 250 μM),effect on all Rpd3-regulated loci ([1]; FIG. 3I)
CC(NC(=O)c1c(O)n2ccccc2nc1=O)c1ccccc1 (racemic) [E6],~150,drastically decreased,–,–,–,–,–
"C[C@@H](NC(=O)c1c(O)n2ccccc2nc1=O)c1ccccc1 [E6R, 4-hydroxy-2-oxo-N—((R)-1-phenylethyl)-3,4-dihydro-2H-pyrido[, 2-a]pyrimidine-3-carboxamide]",–,–,5,22,stronger induction of expression at URS-URA3,–,–
"CC(/C=C/C(=O)NO)=C\[C@@H](C)C(=O)c1ccc(N(C)C)cc1 [TSA, trichostatin A]",–,no effect,13,43,–,consistently derepressed,activated all Rpd3-regulated loci

# — patent publication US20240299393A1, “SMALL MOLECULE DISRUPTORS OF PROTEIN INTERACTIONS IN HISTONE DEACETYLASE COMPLEXES” (Dana-Farber Cancer Institute, Inc., priority 2021, published 2024)
